Test results as given in patent US6537996B2, “Modulators of p38 MAP kinase” (Iconix Pharmaceuticals, Inc., priority 2000, dated 2003).
pIC50: −log10 of the molar value.

How the values were obtained:
[1] = test system: yeast; assay: growth rescue ARC experiments performed in yeast; format: cell-based; settings: Saccharomyces cerevisiae, read-out: in vivo IC50
[2] = molecular target: T1, Recombinant p38 (Homo sapiens, UniProt Q16539); assay: p38 assay (32P incorporation into GST-ATF-2); format: biochemical; settings: recombinant p38, GST-ATF-2 substrate, 30 μM ATP; IC50 estimated from graph
T1 construct: purchased Biomol SE-150
Experimental: (A) Protocol: Recombinant p38 was pre-incubated for 30 minutes at room temperature in ADB (Assay Dilution Buffer: 20 mM MOPS, pH 7.2, 20 mM MgCl2, 5 mM EGTA, 1 mM DTT, 25 mM β-glycerolphosphate, 2 mM pNPP, 0.1 mM sodium orthovanadate) with recombinant GST-ATF-2 and compounds at various concentrations. The DMSO concentration was held constant at 0.1% (v/v) independent of the compound concentration. Kinase reactions were started with a mixture of ^32P-γ-ATP and ATP in ADB and were incubated for 30 minutes at 37° C. Final concentrations in kinase reactions was 0.625 ng/μl recombinant p38 (Biomol, catalog number SE-150), 62.5 ng/μl recombinant GST-ATF-2 (Upstate Biotechnology, catalog #12-367) and 30 μM ATP (Amersham, catalog #AA0068, used within two weeks of the reference date). Reactions were terminated by the addition of stopmix (final concentrations: 62.5 mM Tris pH 6.8, 10% (v/v) glycerol, 5% (v/v) B-mercaptoethanol, 20 mg/ml SDS, 1 mg/ml bromophenol blue). At this point samples were either processed directly or stored at 4° C. For analysis, samples were heated to 95° C. for 5 min and proteins were separated by SDS-PAGE using 8-16% precast gels (Novex). […] Screens were scanned using a PhosphoImager SI (Molecular Dynamics) and the amount of radioactive ^32P incorporated into GST-ATF-2 was quantified using ImageQuant (Molecular Dynamics) software. […]

T1 sequence (Q16539 whole entry): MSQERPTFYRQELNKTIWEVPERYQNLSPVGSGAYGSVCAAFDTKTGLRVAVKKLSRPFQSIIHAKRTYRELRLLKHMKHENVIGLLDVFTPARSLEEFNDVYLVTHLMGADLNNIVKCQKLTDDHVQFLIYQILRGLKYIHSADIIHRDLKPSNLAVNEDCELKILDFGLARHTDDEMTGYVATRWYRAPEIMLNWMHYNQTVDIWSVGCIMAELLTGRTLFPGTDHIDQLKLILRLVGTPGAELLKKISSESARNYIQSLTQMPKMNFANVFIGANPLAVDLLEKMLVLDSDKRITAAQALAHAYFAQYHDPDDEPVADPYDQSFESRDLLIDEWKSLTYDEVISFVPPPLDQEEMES

CC(C)/N=C(/Nc1cccc(C(F)(F)F)c1)c1ccncc1 [X, N-(3-trifluoromethylphenyl)-N′-isopropyl-4-amidinopyridine]
pIC50 [1]: 4.88 | pIC50 [2]: 6.12
